Assay [1] concerns the target T1, E-selectin (Homo sapiens, UniProt P16581).
T1 sequence (P16581 whole entry): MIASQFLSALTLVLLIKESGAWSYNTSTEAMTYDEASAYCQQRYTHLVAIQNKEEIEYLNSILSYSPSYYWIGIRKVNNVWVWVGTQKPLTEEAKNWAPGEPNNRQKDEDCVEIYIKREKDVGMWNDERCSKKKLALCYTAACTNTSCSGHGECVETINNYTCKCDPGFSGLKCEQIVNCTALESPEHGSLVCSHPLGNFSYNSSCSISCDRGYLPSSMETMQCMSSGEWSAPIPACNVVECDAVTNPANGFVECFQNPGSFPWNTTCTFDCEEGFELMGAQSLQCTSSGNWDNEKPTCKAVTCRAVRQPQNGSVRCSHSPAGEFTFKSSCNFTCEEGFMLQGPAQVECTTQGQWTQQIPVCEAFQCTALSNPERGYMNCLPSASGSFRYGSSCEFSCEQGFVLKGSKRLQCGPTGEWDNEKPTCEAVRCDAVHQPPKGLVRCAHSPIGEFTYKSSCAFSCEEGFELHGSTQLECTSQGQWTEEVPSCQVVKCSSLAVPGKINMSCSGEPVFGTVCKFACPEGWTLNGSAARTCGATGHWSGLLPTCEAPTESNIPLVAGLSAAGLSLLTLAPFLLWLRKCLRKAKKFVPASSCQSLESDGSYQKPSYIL
The assay can be described thus: Inhibitory activity against Selectin E IgG chimeras binding to sLex coating 96 wells using competitive cell-free ELISA assay was determined. In general terms: In an ELISA, binding on a coated surface is turned into a signal by an enzyme label.

The target of assay [2] is T2, P-selectin (Homo sapiens, UniProt P16109).
T2 sequence (P16109 whole entry): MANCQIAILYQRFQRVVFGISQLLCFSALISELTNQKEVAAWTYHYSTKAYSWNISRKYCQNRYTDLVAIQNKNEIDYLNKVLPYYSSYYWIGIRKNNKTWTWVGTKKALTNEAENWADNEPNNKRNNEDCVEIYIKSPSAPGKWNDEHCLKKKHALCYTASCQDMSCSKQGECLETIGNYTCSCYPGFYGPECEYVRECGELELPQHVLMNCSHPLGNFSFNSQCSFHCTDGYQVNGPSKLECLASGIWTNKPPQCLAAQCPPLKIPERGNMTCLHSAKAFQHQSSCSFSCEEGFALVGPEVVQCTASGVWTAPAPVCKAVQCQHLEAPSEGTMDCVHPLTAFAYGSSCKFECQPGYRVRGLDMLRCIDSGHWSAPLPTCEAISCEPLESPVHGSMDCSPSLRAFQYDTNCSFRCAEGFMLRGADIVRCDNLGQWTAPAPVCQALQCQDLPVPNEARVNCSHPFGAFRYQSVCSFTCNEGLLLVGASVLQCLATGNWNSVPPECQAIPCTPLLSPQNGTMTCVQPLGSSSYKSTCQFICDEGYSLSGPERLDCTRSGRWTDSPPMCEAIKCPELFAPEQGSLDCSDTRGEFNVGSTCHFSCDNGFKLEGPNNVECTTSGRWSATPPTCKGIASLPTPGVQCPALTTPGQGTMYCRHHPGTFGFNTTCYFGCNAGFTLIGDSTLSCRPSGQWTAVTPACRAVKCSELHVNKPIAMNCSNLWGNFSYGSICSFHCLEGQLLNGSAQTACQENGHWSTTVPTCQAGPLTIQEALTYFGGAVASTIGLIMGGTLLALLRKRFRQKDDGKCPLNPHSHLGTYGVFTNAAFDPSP
The assay can be described thus: Inhibitory activity against P-selectin IgG chimeras binding to sLex coating 96 wells using competitive cell-free ELISA assay was determined.

Assay [3] deals with T3, L-selectin (Homo sapiens, UniProt P14151).
T3 sequence (P14151 whole entry): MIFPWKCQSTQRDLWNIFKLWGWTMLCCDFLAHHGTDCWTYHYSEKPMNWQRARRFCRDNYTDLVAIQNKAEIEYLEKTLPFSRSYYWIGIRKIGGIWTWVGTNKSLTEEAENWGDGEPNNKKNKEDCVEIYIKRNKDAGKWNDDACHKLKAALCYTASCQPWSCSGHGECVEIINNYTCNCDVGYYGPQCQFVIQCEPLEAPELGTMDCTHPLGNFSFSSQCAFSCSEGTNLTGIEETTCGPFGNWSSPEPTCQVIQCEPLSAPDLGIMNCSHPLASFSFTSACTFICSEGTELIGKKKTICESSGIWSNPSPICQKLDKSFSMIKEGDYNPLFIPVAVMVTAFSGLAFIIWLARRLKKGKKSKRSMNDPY
The assay can be described thus: Inhibitory activity against L-selectin IgG chimeras binding to sLex coating 96 wells using competitive cell-free ELISA assay was determined.

Where only a bound is given, the exact number is not on record here.

One may read the IC50 as the concentration that gives 50% inhibition. Low values mean inhibition by little substance, high ones a need for much substance. Consider `COc1cc(CC(=O)O)c(C2OC(C)C(O)C(O)C2O)c(OC)c1OC` (stereo unspecified), for which the IC50 was more than 1000 µM in assay [1], 40 µM in assay [2] and 114 µM in assay [3].
Taken in the same sequence, the figures for `COc1ccc(C2(C(=O)O)CCCCC2)cc1[C@H]1O[C@@H](C)[C@H](O)[C@H](O)[C@@H]1O` were more than 1000 µM, 22 µM and 35 µM.
As to `COc1ccc(CC(=O)O)cc1C1OC(C)C(O)C(O)C1O` (stereo unspecified), the 50% inhibitory concentration (IC50) in assay [1] is more than 1000 µM; in assay [2] it was 1 µM; in assay [3], 3 µM.
As to `COc1ccc(C2(C(=O)O)CCCCC2)cc1C1OC(CO)C(O)C(O)C1O` (stereo unspecified), the half-maximal inhibitory concentration (IC50) in assay [1] was more than 1000 µM; in assay [2], 3 µM; in assay [3] it was 1 µM.
The corresponding values for `COc1ccc(CCCC(=O)O)cc1C1OC(C)C(O)C(O)C1O` (stereo unspecified) are more than 1000 µM, 5 µM and 170 µM.
Consider `COc1ccc(C2(C(=O)O)CCCCC2)cc1C1OCC(O)C(O)C1O` (stereo unspecified), for which the half-maximal inhibitory concentration (IC50) in assay [1] was more than 1000 µM; in assay [2], 8 µM; in assay [3] it was 11 µM.
Taken in the same sequence, the figures for `COc1ccc(C2(C(=O)O)CCCCC2)cc1[C@H]1O[C@@H](C)[C@@H](O)[C@H](O)[C@@H]1O` were more than 1000 µM, 7 µM and 106 µM.

Values taken from ChEMBL document CHEMBL1130683, “Aryl C-glycosides: physiologically stable glycomimetics of sialyl Lewis X” (Bioorg Med Chem Lett, 1998).
